Test results taken from the NIST ThermoML archive (doi:10.1016/j.jct.2006.10.006).
± gives the expanded uncertainty stated by the source.

How the values were obtained:
[1] = Crystal 1; DTA
[2] = Molar enthalpy of transition or fusion; conditions: Crystal; DSC
[3] = molar enthalpy of vaporization or sublimation; conditions: 298.15 K; Crystal; Static calorimetry

Triple point temperature [1]: 345.9 ± 0.5 K | Molar enthalpy of transition or fusion [2]: 5.23 ± 0.234 kcal/mol | molar enthalpy [3]: 34.2 ± 1.43 kcal/mol
SMILES: CCOC(=S)NC(=O)c1cccs1 [carbamothioic acid, N-(2-thienylcarbonyl)-, O-ethyl ester]
